Source: patent US20150289513A1, “USE OF A COMPOUND COMPRISING A POLYFLUOROBENZYL MOIETY AGAINST INSECTICIDE-RESISTANT PESTS” (priority 2012, published 2015)

Key:
[1] = test system: Anopheles funestus (metabolic-resistant strain FUMOZ-R); assay: Glazed tile contact test, knock-down; assay type: in vivo
Procedure: (§1) To produce a suitable preparation Transfluthrin was dissolved in acetone. The active compound solution was pipetted onto a glazed tile and, after drying, adult mosquitoes of the species: • Anopheles gambiae (target-site-resistant and metabolic-resistant strain: RSPH), • Anopheles gambiae (target-site-resitant and metabolic-resistant strain: Tiassalé), • Anopheles gambiae (tar et-site-resitant and metabolic-resistant strain: Akron), • Anopheles gambiae (target-site-resistant strain: VK7), and • Anopheles funestus (metabolic-resistant strain FUMOZ-R) were placed onto the treated tile (each strain was tested on separate tiles). The exposition time was 30 minutes.
(§2) 0.25 hours, 0.5 hours, 1 hour, 2 hour, 3 hour, 4 hour and 24 hours after contact to the treated surface, the knock-down proportion of the test animals in % was determined. Here, 100% (effect) means that all mosquitoes have been killed; 0% (effect) means that none of the mosquitoes have been killed.
(§3) Similarly as outlined in example 2 for Transfluthrin, Metofluthrin efficacy was assessed against • Anopheles gambiae (target-site-resistant and metabolic-resistant strain: RSPH), • Anopheles funestus (metabolic-resistant strain FUMOZ-R), and • Culex quinquefasciatus (metabolic-resistant to DDT; strain P00), with the results shown in Tables 10 to 12. 0.25 hours, 0.5 hours, 1 hour, 2 hour, 3 hour, 4 hour and 24 hours after contact to the treated surface, the knock-down proportion of the test animals in % is depicted in Tables 10 to 12. 100% (effect) means that all mosquitoes have been killed; 0% (effect) means that none of the mosquitoes have been killed.
(§4) Similarly as outlined in example 2 for Transfluthrin, Metofluthrin efficacy was assessed against • Anopheles gambiae (target-site-resistant and metabolic-resistant strain: RSPH), • Anopheles funestus (metabolic-resistant strain FUMOZ-R), and with the results shown in Tables […]. 0.25 hours, 0.5 hours, 1 hour, 2 hour and 3 hours after contact to the treated surface, the knock-down proportion of the test animals in % is depicted in Tables 13 to 14. 100% (effect) means that all mosquitoes have been killed; 0% (effect) means that none of the mosquitoes have been killed.

[2] = test system: Anopheles gambiae (target-site-resistant and metabolic-resistant strain: RSPH); assay: Glazed tile contact test, knock-down; assay type: in vivo
Procedure: as §1, §2, §3, §4

COCc1c(F)c(F)c(COC(=O)C2C(C=C(C)C#N)C2(C)C)c(F)c1F (centres unmarked) [Momfluorothrin, 2,3,5,6-Tetrafluoro-4-(methoxymethyl)benzyl 3-(2-cyano-1-propen-1-yl)-2,2-dimethylcyclopropanecarboxylate]
Effect % ([1]; 1.6 g/ha, 0.25 h after contact): 0%
Effect % ([1]; 1.6 g/ha, 0.5 h after contact): 0%
Effect % ([1]; 1.6 g/ha, 1 h after contact): 0%
Effect % ([1]; 1.6 g/ha, 2 h after contact): 10%
Effect % ([1]; 1.6 g/ha, 3 h after contact): 20%
Effect % ([1]; 40 g/ha, 0.25 h after contact): 100%
Effect % ([1]; 40 g/ha, 0.5 h after contact): 100%
Effect % ([1]; 40 g/ha, 1 h after contact): 100%
Effect % ([1]; 40 g/ha, 2 h after contact): 90%
Effect % ([1]; 40 g/ha, 3 h after contact): 100%
Effect % ([2]; 1.6 g/ha, 0.25 h after contact): 10%
Effect % ([2]; 1.6 g/ha, 0.5 h after contact): 7%
Effect % ([2]; 1.6 g/ha, 1 h after contact): 35%
Effect % ([2]; 1.6 g/ha, 2 h after contact): 14%
Effect % ([2]; 1.6 g/ha, 3 h after contact): 14%
Effect % ([2]; 40 g/ha, 0.25 h after contact): 100%
Effect % ([2]; 40 g/ha, 0.5 h after contact): 100%
Effect % ([2]; 40 g/ha, 1 h after contact): 100%
Effect % ([2]; 40 g/ha, 2 h after contact): 100%
Effect % ([2]; 40 g/ha, 3 h after contact): 100%
